Measured values as given in ChEMBL document CHEMBL1932964, “Lead optimisation of pyrazoles as novel FPR1 antagonists” (Bioorg Med Chem Lett, 2012).
≈ marks a conversion by molar mass, not a printed value.

Tests used:
fMet-Leu-Phe receptor [1] = molecular target: T1, fMet-Leu-Phe receptor (Homo sapiens, UniProt P21462); experiment: Antagonist activity at human recombinant FPR1 in expressed in HEK293 cells assessed as inhibition of FMLP-stimulated intracellular calcium mobilisation after 1 hr by FLIPR assay; type: functional, cell-based
T1 sequence (P21462 whole entry): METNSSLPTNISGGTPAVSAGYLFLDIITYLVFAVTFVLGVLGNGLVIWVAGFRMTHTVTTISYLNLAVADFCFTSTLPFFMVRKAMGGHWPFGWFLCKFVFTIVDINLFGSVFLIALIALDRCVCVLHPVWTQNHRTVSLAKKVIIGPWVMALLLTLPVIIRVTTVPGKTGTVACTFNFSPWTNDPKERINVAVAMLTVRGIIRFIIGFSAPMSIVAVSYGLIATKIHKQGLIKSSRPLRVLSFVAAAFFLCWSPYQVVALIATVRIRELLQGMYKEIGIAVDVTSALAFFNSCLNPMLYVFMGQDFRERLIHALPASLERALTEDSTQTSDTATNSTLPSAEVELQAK

[2] = Intrinsic clearance in Sprague-Dawley rat hepatocytes assessed per 10^6 cells measured after 90 mins
[3] = molecular target: T2, fMet-Leu-Phe receptor (Homo sapiens) (UniProt P21462); experiment: Antagonist activity at human recombinant FPR1 in expressed in HEK293 cells assessed as inhibition of FMLP-stimulated intracellular calcium mobilisation at 30 uM after 1 hr by FLIPR assay; type: functional, cell-based
T2 sequence (whole entry): T1 sequence (P21462 whole entry)

[4] = (§1) Fraction unbound in Sprague-Dawley rat plasma; type: ADME, cell-free; details: Sprague-Dawley
Liver = experiment: Intrinsic clearance in rat liver microsomes assessed as media loss of parent compound per million cells
[5] = Clearance in Sprague-Dawley rat at 2 mg/kg, iv; details: in vivo
[6] = Intrinsic clearance in human liver microsomes measured after 45 mins post NADPH addition
[7] = Intrinsic clearance in human hepatocytes assessed per 10^6 cells measured after 90 mins
[8] = […] pKa of the compound; type: physicochemical
[9] = Thermodynamic solubility of compound by shake-flask technique; type: physicochemical; details: read-out: Therm_solubility
Plasma [10] = experiment: (§2) Fraction unbound in human plasma; type: ADME, cell-free
Plasma [11] = experiment: as §1; type: ADME, cell-free
[12] = Ratio of drug level in blood to plasma in Sprague-Dawley rat; type: ADME
[13] = molecular target: T3, Solute carrier organic anion transporter family member 1B1 (Homo sapiens, UniProt Q9Y6L6); experiment: Inhibition of OATP1B1 transporter
T3 sequence (Q9Y6L6 whole entry): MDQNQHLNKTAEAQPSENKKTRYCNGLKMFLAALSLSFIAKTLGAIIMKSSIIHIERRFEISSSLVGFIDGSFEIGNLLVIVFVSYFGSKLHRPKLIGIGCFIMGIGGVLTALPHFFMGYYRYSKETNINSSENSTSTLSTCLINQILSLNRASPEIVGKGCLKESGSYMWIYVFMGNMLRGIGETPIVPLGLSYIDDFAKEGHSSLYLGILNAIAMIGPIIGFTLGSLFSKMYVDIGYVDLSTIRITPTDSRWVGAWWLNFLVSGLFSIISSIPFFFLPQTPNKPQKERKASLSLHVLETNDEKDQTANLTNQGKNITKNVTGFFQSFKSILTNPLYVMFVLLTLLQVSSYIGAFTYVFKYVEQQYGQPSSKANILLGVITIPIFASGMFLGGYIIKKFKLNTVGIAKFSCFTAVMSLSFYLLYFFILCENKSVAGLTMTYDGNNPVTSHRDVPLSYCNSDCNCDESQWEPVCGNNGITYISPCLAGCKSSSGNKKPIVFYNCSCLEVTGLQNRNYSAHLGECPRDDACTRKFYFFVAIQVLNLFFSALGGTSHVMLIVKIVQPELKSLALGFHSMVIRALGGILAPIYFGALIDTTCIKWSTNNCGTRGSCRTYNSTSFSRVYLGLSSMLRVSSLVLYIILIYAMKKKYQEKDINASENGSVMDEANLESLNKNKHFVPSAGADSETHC

[14] = Half life in Sprague-Dawley rat at 2 mg/kg, iv; details: in vivo
[15] = Volume of distribution at steady state in Sprague-Dawley rat at 2 mg/kg, iv; type: ADME, organism-based; parameters: dose 2 mg/kg, route intravenous; details: in vivo, read-out: Vdss
[16] = Oral bioavailability in Sprague-Dawley rat at 2 mg/kg; type: ADME, organism-based; details: in vivo
[17] = Distribution coefficient, log D of compound; type: physicochemical; details: octanol/water
[18] = as §2; type: ADME, cell-free
fMet-Leu-Phe receptor [19] = molecular target: T1, fMet-Leu-Phe receptor; experiment: Antagonist activity at FPR1 in human neutrophils assessed as AB/fMLF-stimulated upregulation of CD11b expression preincubated for 30 mins before AB/FMLF challenge measured after 50 mins using FITC staining by flow cytometry; type: functional; details: read-out: pA2 (converted)
THP-1 = experiment: Cytotoxicity against human THP1 cells; type: cell-based
Cytochrome P450 1A2 = molecular target: T4, Cytochrome P450 1A2 (Homo sapiens, UniProt P05177); experiment: Inhibition of CYP1A2; type: ADME
T4 sequence (P05177 whole entry): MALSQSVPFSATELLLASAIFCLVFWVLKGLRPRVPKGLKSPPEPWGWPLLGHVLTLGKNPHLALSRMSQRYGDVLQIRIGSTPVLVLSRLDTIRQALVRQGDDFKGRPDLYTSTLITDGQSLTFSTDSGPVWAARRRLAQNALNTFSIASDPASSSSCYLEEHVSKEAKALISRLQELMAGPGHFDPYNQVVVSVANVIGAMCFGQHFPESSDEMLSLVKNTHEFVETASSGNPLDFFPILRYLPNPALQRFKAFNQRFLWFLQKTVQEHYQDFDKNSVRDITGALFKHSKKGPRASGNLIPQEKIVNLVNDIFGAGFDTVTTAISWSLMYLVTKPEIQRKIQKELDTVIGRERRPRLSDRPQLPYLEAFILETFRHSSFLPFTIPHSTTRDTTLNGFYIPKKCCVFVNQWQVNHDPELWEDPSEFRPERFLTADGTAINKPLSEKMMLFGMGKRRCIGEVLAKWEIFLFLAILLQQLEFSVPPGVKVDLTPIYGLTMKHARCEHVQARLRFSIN

Cytochrome P450 2C9 = Cytochrome P450 2C9 (Homo sapiens, UniProt P11712); experiment: Inhibition of CYP2C9; type: ADME
Chain of Cytochrome P450 2C9 (P11712 whole entry): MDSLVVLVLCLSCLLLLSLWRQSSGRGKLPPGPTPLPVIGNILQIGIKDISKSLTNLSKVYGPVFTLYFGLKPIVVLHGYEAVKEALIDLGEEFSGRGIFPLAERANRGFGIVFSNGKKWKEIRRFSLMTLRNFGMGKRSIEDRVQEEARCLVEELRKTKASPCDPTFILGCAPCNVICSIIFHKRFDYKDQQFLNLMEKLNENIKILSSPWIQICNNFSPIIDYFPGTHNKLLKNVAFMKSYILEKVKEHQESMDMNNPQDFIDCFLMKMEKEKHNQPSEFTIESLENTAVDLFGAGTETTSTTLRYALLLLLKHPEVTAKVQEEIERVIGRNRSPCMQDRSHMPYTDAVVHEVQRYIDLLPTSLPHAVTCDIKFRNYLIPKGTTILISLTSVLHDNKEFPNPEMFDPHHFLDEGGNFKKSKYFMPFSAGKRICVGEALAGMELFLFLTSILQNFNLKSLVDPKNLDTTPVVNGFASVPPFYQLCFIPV

Cytochrome P450 2C19 = Cytochrome P450 2C19 (Homo sapiens, UniProt P33261); experiment: Inhibition of CYP2C19; type: ADME
Chain of Cytochrome P450 2C19 (P33261 whole entry): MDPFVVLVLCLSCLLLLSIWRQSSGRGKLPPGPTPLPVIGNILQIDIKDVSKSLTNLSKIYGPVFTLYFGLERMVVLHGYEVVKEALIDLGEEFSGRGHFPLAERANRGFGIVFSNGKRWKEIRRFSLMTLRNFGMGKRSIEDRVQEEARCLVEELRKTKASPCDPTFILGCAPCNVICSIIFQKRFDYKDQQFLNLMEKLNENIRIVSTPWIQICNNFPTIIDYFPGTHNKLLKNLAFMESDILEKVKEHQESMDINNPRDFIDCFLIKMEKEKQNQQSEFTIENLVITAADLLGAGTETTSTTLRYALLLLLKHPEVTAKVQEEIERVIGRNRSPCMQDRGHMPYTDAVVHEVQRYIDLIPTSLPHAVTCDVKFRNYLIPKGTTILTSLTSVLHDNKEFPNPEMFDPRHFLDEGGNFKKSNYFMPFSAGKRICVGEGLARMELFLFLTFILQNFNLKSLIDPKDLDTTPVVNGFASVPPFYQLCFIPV

Cytochrome P450 2D6 = Cytochrome P450 2D6 (Homo sapiens, UniProt P10635); experiment: Inhibition of CYP2D6; type: ADME
Chain of Cytochrome P450 2D6 (P10635 whole entry): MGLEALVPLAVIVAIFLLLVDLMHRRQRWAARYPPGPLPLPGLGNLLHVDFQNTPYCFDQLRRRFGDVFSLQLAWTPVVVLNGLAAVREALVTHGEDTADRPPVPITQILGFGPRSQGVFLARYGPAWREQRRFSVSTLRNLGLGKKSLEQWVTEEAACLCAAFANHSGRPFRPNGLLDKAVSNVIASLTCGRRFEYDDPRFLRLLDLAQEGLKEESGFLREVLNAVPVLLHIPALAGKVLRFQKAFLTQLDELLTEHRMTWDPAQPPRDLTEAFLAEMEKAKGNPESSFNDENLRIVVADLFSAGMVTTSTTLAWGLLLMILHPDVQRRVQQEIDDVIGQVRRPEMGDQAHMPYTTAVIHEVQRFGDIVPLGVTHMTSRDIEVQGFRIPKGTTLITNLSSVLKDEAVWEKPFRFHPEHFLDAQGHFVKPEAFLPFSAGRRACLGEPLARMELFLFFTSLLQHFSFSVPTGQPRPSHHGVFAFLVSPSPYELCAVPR

Cytochrome P450 3A4 = Cytochrome P450 3A4 (Homo sapiens, UniProt P08684); experiment: Inhibition of CYP3A4; type: ADME
Chain of Cytochrome P450 3A4 (P08684 whole entry): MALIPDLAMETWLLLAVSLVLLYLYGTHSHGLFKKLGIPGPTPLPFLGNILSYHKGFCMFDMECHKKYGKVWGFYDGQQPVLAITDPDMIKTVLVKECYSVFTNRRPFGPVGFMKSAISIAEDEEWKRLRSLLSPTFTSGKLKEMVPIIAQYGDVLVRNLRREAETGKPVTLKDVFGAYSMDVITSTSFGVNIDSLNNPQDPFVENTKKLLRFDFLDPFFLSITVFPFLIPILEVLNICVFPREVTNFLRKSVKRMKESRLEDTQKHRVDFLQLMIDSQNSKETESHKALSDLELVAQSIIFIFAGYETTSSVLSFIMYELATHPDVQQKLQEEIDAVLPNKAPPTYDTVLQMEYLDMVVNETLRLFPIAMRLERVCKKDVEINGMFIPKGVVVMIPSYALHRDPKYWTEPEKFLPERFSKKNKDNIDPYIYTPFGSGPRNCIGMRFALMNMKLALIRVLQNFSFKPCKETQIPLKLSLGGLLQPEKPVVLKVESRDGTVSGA

[20] = Time dependent inhibition of CYP; type: ADME
[21] = Plasma clearance in bile duct cannulated Sprague-Dawley rat; type: ADME, organism-based

Cc1ccc(S(=O)(=O)Nc2c(C(=O)N[C@@H](C)C(C)(C)C)c(C)nn2C2CCOCC2)cc1
IC50 (fMet-Leu-Phe receptor [1]): 0.316 µM

Cc1ccc(S(=O)(=O)Nc2c(C(=O)N[C@@H](C)C(C)(C)C)c(C)nn2C(C)(C)C)cc1
IC50 (fMet-Leu-Phe receptor [1]): 1.58 µM | hepatocyte CLint at […] [2]: 53 µL/min/1e6 cells

Cc1ccc(S(=O)(=O)Nc2c(C(=O)N[C@@H](C)C(C)(C)C)c(C)nn2C2CCC2)cc1
IC50 (fMet-Leu-Phe receptor [1]): 0.2 µM | hepatocyte CLint at […] [2]: 17 µL/min/1e6 cells

CCC(CC)n1nc(C)c(C(=O)N[C@@H](C)C(C)(C)C)c1NS(=O)(=O)c1ccc(C)cc1
IC50 (fMet-Leu-Phe receptor [1]): 0.398 µM

Cc1ccc(S(=O)(=O)Nc2c(C(=O)N[C@@H](C)C(C)(C)C)c(C)nn2C2CCN(C)CC2)cc1
inhibition [3]: < 30%

COCC(C)n1nc(C)c(C(=O)N[C@@H](C)C(C)(C)C)c1NS(=O)(=O)c1ccc(C)cc1 (some centres not stated)
IC50 (fMet-Leu-Phe receptor [1]): 2.51 µM | hepatocyte CLint at […] [2]: < 3 µL/min/1e6 cells

Cc1ccc(S(=O)(=O)Nc2c(C(=O)N[C@@H](C)C(C)(C)C)c(C)nn2C(C)C)cc1
IC50 (fMet-Leu-Phe receptor [1]): 1 µM | hepatocyte CLint at […] [2]: < 6 µL/min/1e6 cells | fraction unbound [4]: 0.04 | CLH (Liver): 7.8 µL/min | clearance [5]: 4 mL/min/kg

Cc1ccc(S(=O)(=O)Nc2c(C(=O)N[C@@H](C)C(C)(C)C)c(C)nn2CC(F)(F)F)cc1
IC50 (fMet-Leu-Phe receptor [1]): 3.16 µM | hepatocyte CLint at […] [2]: 74 µL/min/1e6 cells | CLH (Liver): 18 µL/min

Cc1ccc(S(=O)(=O)Nc2c(C(=O)N[C@@H](C)C(C)(C)C)c(C)nn2-c2ccccc2)cc1
microsomal CLint at 0.75 h [6]: 40 µL/min/mg | hepatocyte CLint at […] [7]: 7 µL/min/1e6 cells | pKa [8]: 3.9 | solubility thermodynamic [9]: 1030 µM (≈ 468 µg/mL) | Fu (Plasma [10]): 4.2% | Fu (Plasma [11]): 1.1% | blood plasma ratio [12]: 0.7 | IC50 [13]: 7.94 µM | CLH (Liver): 412 µL/min | clearance [5]: 42 mL/min/kg | half-life [14]: 15 min | Vd [15]: 0.45 L/kg | bioavailability [16]: 19%

Cc1ccc(S(=O)(=O)Nc2c(C(=O)N[C@@H](C)C(C)(C)C)c(C)nn2C2CCSCC2)cc1
IC50 (fMet-Leu-Phe receptor [1]): 0.0398 µM

CCC(CC)NC(=O)c1c(C)nn(C(C)C)c1NS(=O)(=O)c1ccc(C)cc1
IC50 (fMet-Leu-Phe receptor [1]): 25.1 µM

Cc1nn(C2CCOCC2)c(NS(=O)(=O)c2ccc(C3CC3)cc2)c1C(=O)N[C@@H](C)C(C)(C)C
IC50 (fMet-Leu-Phe receptor [1]): 0.158 µM | logD [17]: 1.2 | solubility thermodynamic [9]: > 2800 µM | fraction unbound [18]: 0.075 | fraction unbound [4]: 0.111 | Vd [15]: 0.5 L/kg | bioavailability [16]: 83% | Kb (fMet-Leu-Phe receptor [19]): 0.794 µM | IC50 (THP-1): > 50.1 µM | IC50 (Cytochrome P450 1A2): > 10 µM | IC50 (Cytochrome P450 2C9): > 10 µM | IC50 (Cytochrome P450 2C19): > 10 µM | IC50 (Cytochrome P450 2D6): > 10 µM | IC50 (Cytochrome P450 3A4): > 10 µM | pIC50 [20]: < 5

Cc1ccc(S(=O)(=O)Nc2c(C(=O)N[C@@H](C)C(C)(C)C)c(C)nn2C2CCCCC2)cc1
IC50 (fMet-Leu-Phe receptor [1]): 0.0316 µM | hepatocyte CLint at […] [2]: 8 µL/min/1e6 cells | CLH (Liver): 23 µL/min

Cc1ccc(S(=O)(=O)Nc2c(C(=O)N[C@@H](C)C(C)(C)C)c(C)nn2C2CCCC2)cc1
IC50 (fMet-Leu-Phe receptor [1]): 0.0794 µM | hepatocyte CLint at […] [2]: 8 µL/min/1e6 cells | CLH (Liver): 12 µL/min

Cc1nn(-c2ccc(F)cc2)c(NS(=O)(=O)c2ccc(C#N)cc2)c1C(=O)N[C@@H](C)C(C)(C)C
microsomal CLint at 0.75 h [6]: 5 µL/min/mg | hepatocyte CLint at […] [7]: < 3 µL/min/1e6 cells | hepatocyte CLint at […] [2]: < 4 µL/min/1e6 cells | pKa [8]: 3 | solubility thermodynamic [9]: > 2010 µM | fraction unbound [18]: 0.08 | fraction unbound [4]: 0.043 | blood plasma ratio [12]: 0.7 | CLH (Liver): 33 µL/min | clearance [5]: 42 mL/min/kg | half-life [14]: 36 min | Vd [15]: 0.23 L/kg | bioavailability [16]: 5% | clearance [21]: 21 mL/min/kg

CO[C@H]1CC[C@@H](n2nc(C)c(C(=O)N[C@@H](C)C(C)(C)C)c2NS(=O)(=O)c2ccc(C)cc2)CC1
IC50 (fMet-Leu-Phe receptor [1]): 0.00398 µM | logD [17]: 1.3 | microsomal CLint at 0.75 h [6]: 8 µL/min/mg | hepatocyte CLint at […] [7]: 3.6 µL/min/1e6 cells | hepatocyte CLint at […] [2]: 3 µL/min/1e6 cells | fraction unbound [18]: 0.073 | fraction unbound [4]: 0.1 | clearance [5]: 5.5 mL/min/kg | half-life [14]: 168 min | Vd [15]: 1.2 L/kg | bioavailability [16]: 80% | Kb (fMet-Leu-Phe receptor [19]): 0.02 µM | IC50 (THP-1): > 50.1 µM | IC50 (Cytochrome P450 1A2): > 10 µM | IC50 (Cytochrome P450 2C9): > 10 µM | IC50 (Cytochrome P450 2C19): > 10 µM | IC50 (Cytochrome P450 2D6): > 10 µM | IC50 (Cytochrome P450 3A4): > 10 µM | pIC50 [20]: < 5

CO[C@H]1CC[C@H](n2nc(C)c(C(=O)N[C@@H](C)C(C)(C)C)c2NS(=O)(=O)c2ccc(C)cc2)CC1
inhibition [3]: < 30%

Cc1ccc(S(=O)(=O)Nc2c(C(=O)N[C@@H](C)C(C)(C)C)c(C)nn2C2CCN(CC(F)(F)F)CC2)cc1
IC50 (fMet-Leu-Phe receptor [1]): 3.16 µM

COCCC(C)n1nc(C)c(C(=O)N[C@@H](C)C(C)(C)C)c1NS(=O)(=O)c1ccc(C)cc1 (some centres not stated)
IC50 (fMet-Leu-Phe receptor [1]): 0.316 µM | hepatocyte CLint at […] [2]: 10 µL/min/1e6 cells

Cc1ccc(S(=O)(=O)Nc2c(C(=O)N[C@@H](C)C(C)(C)C)c(C)nn2C2CCS(=O)(=O)CC2)cc1
IC50 (fMet-Leu-Phe receptor [1]): 10 µM

Cc1ccc(S(=O)(=O)Nc2c(C(=O)N[C@@H](C)C(C)(C)C)c(C)nn2C2CCOC2)cc1 (some centres not stated)
IC50 (fMet-Leu-Phe receptor [1]): 1 µM
